Assay results from ChEMBL document CHEMBL5634161, “Discovery of benzamide-based PI3K/HDAC dual inhibitors with marked pro-apoptosis activity in lymphoma cells” (Eur J Med Chem, 2023).
Blank lines part the entries; values can stand above or below the molecule they belong to. The source made the active and inactive calls. No cut-off for these calls is given here.

Key:
[1] = test system: JeKo-1; assay: Potentiation of CI994-induced apoptosis in human JeKo-1 cells; format: functional, cell-based
[2] = test system: JeKo-1; assay: Induction of apoptosis in human JeKo-1 cells assessed as necrotic cells at 0.25 uM incubated for 48 hrs by Annexin-V/FITC and PI staining based flow cytometric analysis (reference value: 1.05%); format: functional
[3] = Inhibition of PI3K/AKT/mTOR signaling in human JeKo-1 cells assessed as decrease in AKT phosphorylation at S473 residue at 0.25 uM incubated for 24 hrs by Western blot analysis; format: cell-based
[4] = test system: JeKo-1; assay: Induction of apoptosis in human JeKo-1 cells assessed as viable cells at 1 uM incubated for 48 hrs by Annexin-V/FITC and PI staining based flow cytometric analysis (reference value: 94.1%); format: functional; conditions: read-out: Activity
[5] = test system: JeKo-1; assay: Induction of apoptosis in human JeKo-1 cells assessed as late apoptotic cells at 0.5 uM incubated for 48 hrs by Annexin-V/FITC and PI staining based flow cytometric analysis (reference value: 3.66%); format: functional
[6] = test system: JeKo-1; assay: Induction of apoptosis in human JeKo-1 cells assessed as late apoptotic cells at 1 uM incubated for 48 hrs by Annexin-V/FITC and PI staining based flow cytometric analysis (reference value: 3.66%); format: functional
[7] = test system: MM1.S; assay: Antiproliferative activity against human MM1.S cells incubated for 48 hrs by resazurin dye based fluorescence micro plate reader analysis; format: functional, cell-based
[8] = test system: JeKo-1; assay: Induction of apoptosis in human JeKo-1 cells assessed as necrotic cells at 0.5 uM incubated for 48 hrs by Annexin-V/FITC and PI staining based flow cytometric analysis (reference value: 1.05%); format: functional
[9] = test system: JeKo-1; assay: Induction of apoptosis in human JeKo-1 cells assessed as late apoptotic cells at 0.25 uM incubated for 48 hrs by Annexin-V/FITC and PI staining based flow cytometric analysis (reference value: 3.66%); format: functional
[10] = target: Phosphatidylinositol 4,5-bisphosphate 3-kinase catalytic subunit alpha isoform (Homo sapiens, UniProt P42336); assay: Inhibition of PI3Kalpha (unknown origin) using PIP2 as substrate incubated for 1 hrs in presence of ATP by ADP-Glo kinase assay
[11] = test system: HL-60; assay: Antiproliferative activity against human HL-60 cells incubated for 48 hrs by resazurin dye based fluorescence micro plate reader analysis; format: functional, cell-based; conditions: HL-60, 48 h
[12] = test system: JeKo-1; assay: Induction of apoptosis in human JeKo-1 cells assessed as viable cells at 0.25 uM incubated for 48 hrs by Annexin-V/FITC and PI staining based flow cytometric analysis (reference value: 94.1%); format: functional; conditions: read-out: Activity
[13] = test system: MDA-MB-231; assay: Antiproliferative activity against human MDA-MB-231 cells incubated for 48 hrs by resazurin dye based fluorescence micro plate reader analysis; format: functional, cell-based; conditions: MDA-MB-231, 48 h
[14] = test system: JeKo-1; assay: Antiproliferative activity against human JeKo-1 cells incubated for 48 hrs by resazurin dye based fluorescence micro plate reader analysis; format: functional, cell-based; conditions: JeKo-1, 48 h
[15] = test system: JeKo-1; assay: Induction of apoptosis in human JeKo-1 cells assessed as necrotic cells at 1 uM incubated for 48 hrs by Annexin-V/FITC and PI staining based flow cytometric analysis (reference value: 1.05%); format: functional
[16] = test system: JeKo-1; assay: Effect on total AKT protein level in human JeKo-1 cells at 0.25 uM incubated for 24 hrs by Western blot analysis; format: functional, cell-based
[17] = test system: JeKo-1; assay: Induction of apoptosis in human JeKo-1 cells assessed as viable cells at 0.5 uM incubated for 48 hrs by Annexin-V/FITC and PI staining based flow cytometric analysis (reference value: 94.1%); format: functional; conditions: read-out: Activity
[18] = Cytotoxicity against human HL7702 cells incubated for 48 hrs by resazurin dye based fluorescence micro plate reader analysis; format: toxicity, cell-based; conditions: HL7702 (L02) cells
[19] = target: Histone deacetylase 1 (Homo sapiens, UniProt Q13547); assay: Inhibition of HDAC1 (unknown origin) using Boc-Lys(acetyl)-AMC as substrate preincubated for 1 hrs followed by substrate addition and measured after 2 hrs by spectrophotometer based fluorometric assay
[20] = target: Histone deacetylase 3 (Homo sapiens, UniProt O15379); assay: Inhibition of HDAC3 (unknown origin) using Boc-Lys(acetyl)-AMC as substrate preincubated for 1 hrs followed by substrate addition and measured after 2 hrs by spectrophotometer based fluorometric assay
[21] = target: Histone deacetylase 2 (Homo sapiens, UniProt Q92769); assay: Inhibition of HDAC2 (unknown origin) using Boc-Lys(acetyl)-AMC as substrate preincubated for 1 hrs followed by substrate addition and measured after 2 hrs by spectrophotometer based fluorometric assay
[22] = test system: JeKo-1; assay: (§1) Synergistic antiproliferative activity against human JeKo-1 cells assessed as combination index at 0.625 uM incubated for 48 hrs in presence of 1.25 uM 4-(3-(4-(4-methoxy-6-morpholino-1,3,5-triazin-2-yl)phenyl)urea)-N-(2-ethylamino)ethylbenzamide by resazurin dye based fluorescence microplate reader analysis; format: functional
[23] = test system: JeKo-1; assay: Induction of apoptosis in human JeKo-1 cells assessed as early apoptotic cells at 0.5 uM incubated for 48 hrs by Annexin-V/FITC and PI staining based flow cytometric analysis (reference value: […]); format: functional
[24] = test system: JeKo-1; assay: as §1, with “5” for “0.625”, “0.625” for “1.25”; format: functional
[25] = test system: JeKo-1; assay: Induction of apoptosis in human JeKo-1 cells assessed as early apoptotic cells at 1 uM incubated for 48 hrs by Annexin-V/FITC and PI staining based flow cytometric analysis (reference value: […]); format: functional
[26] = test system: JeKo-1; assay: as §1, with “2.5” for “0.625”; format: functional
[27] = test system: JeKo-1; assay: as §1, with “2.5” for “0.625”, “5” for “1.25”; format: functional
[28] = test system: JeKo-1; assay: Induction of apoptosis in human JeKo-1 cells assessed as early apoptotic cells at 0.25 uM incubated for 48 hrs by Annexin-V/FITC and PI staining based flow cytometric analysis (reference value: […]); format: functional
[29] = test system: JeKo-1; assay: as §1, with “5” for “0.625”, “5” for “1.25”; format: functional
[30] = test system: JeKo-1; assay: as §1, with “2.5” for “0.625”, “0.625” for “1.25”; format: functional
[31] = test system: JeKo-1; assay: as §1, with “5” for “1.25”; format: functional
[32] = test system: JeKo-1; assay: as §1, with “5” for “0.625”; format: functional
[33] = test system: JeKo-1; assay: as §1, with “1.25” for “0.625”, “5” for “1.25”; format: functional
[34] = test system: JeKo-1; assay: as §1, with “1.25” for “0.625”; format: functional
[35] = test system: JeKo-1; assay: as §1, with “5” for “0.625”, “2.5” for “1.25”; format: functional
[36] = test system: JeKo-1; assay: as §1, with “1.25” for “0.625”, “2.5” for “1.25”; format: functional
[37] = test system: JeKo-1; assay: as §1, with “1.25” for “0.625”, “0.625” for “1.25”; format: functional
[38] = test system: JeKo-1; assay: as §1, with “2.5” for “0.625”, “2.5” for “1.25”; format: functional
[39] = test system: JeKo-1; assay: as §1, with “0.625” for “1.25”; format: functional
[40] = test system: JeKo-1; assay: as §1, with “2.5” for “1.25”; format: functional

Histone deacetylase 3, sequence (O15379 whole entry): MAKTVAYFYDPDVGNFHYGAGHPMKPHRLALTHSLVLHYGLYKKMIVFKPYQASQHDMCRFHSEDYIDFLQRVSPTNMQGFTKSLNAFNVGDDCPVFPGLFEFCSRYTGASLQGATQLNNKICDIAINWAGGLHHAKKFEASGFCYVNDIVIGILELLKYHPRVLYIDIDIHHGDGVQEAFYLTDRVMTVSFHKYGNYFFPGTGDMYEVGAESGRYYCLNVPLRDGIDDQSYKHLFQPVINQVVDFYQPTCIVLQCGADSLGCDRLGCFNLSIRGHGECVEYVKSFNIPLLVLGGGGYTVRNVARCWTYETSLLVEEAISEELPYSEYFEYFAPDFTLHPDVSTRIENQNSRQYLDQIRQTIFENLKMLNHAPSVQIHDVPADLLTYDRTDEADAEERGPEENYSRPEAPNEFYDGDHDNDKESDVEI
Phosphatidylinositol 4,5-bisphosphate 3-kinase catalytic subunit alpha isoform, sequence (P42336 whole entry, canonical isoform): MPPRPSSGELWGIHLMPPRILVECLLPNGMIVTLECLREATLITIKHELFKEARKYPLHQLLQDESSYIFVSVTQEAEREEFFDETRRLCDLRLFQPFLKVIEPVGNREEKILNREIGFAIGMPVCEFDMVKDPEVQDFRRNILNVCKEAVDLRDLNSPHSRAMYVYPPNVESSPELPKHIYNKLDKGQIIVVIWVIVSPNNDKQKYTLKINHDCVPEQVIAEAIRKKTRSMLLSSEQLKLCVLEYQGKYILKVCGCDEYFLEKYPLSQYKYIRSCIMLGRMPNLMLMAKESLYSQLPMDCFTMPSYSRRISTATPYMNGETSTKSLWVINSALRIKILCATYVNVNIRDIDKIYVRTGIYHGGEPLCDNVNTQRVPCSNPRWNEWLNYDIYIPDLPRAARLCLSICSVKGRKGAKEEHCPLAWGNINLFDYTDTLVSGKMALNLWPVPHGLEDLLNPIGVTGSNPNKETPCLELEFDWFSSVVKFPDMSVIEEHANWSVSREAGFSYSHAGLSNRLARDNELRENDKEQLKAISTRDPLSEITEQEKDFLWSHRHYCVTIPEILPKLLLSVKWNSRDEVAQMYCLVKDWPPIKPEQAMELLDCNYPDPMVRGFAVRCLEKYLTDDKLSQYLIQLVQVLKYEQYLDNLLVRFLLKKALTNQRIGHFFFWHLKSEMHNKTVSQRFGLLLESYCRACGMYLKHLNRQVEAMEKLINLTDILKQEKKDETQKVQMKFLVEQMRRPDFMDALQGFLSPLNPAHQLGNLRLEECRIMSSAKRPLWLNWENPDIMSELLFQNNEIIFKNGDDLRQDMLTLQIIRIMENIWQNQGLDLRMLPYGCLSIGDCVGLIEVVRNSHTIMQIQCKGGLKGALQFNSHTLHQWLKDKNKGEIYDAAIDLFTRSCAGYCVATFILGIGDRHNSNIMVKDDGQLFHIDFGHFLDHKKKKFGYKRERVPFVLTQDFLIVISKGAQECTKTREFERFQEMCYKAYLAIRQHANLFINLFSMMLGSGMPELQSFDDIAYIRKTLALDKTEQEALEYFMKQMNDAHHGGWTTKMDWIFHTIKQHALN
Histone deacetylase 2, sequence (Q92769 whole entry): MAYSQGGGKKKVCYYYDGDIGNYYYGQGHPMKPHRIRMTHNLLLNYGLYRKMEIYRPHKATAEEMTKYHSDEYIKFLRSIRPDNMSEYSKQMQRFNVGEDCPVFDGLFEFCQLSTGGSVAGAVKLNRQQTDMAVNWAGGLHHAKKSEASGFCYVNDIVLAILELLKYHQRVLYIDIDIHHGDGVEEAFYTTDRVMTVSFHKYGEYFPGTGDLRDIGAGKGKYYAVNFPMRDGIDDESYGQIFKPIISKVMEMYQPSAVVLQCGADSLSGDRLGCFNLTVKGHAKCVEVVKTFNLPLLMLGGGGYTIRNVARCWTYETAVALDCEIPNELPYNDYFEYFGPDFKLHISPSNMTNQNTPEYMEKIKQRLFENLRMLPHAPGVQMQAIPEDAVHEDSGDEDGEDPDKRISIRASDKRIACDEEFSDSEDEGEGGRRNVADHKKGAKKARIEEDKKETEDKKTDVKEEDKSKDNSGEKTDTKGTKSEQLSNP
Histone deacetylase 1, sequence (Q13547 whole entry): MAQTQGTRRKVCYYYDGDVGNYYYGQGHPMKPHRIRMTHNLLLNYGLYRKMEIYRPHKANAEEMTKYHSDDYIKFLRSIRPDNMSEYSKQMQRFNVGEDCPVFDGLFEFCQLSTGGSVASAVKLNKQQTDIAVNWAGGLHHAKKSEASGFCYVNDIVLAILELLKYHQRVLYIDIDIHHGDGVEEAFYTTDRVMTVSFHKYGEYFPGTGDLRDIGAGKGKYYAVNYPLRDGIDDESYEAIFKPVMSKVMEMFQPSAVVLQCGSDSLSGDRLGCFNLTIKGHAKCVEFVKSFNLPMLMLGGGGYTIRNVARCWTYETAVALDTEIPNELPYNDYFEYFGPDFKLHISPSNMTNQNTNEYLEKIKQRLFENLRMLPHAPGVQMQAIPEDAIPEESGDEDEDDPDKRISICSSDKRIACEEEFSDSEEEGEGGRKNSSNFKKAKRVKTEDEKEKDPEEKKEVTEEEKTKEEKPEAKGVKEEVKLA

Structure (SMILES): CNCCNC(=O)c1ccc(NC(=O)Nc2ccc(-c3nc(OC)nc(N4CCOCC4)n3)cc2)cc1
Activity [1]: Active | Activity [2]: 0.73% | inhibition [3]: Active | viability at 1 µM [4]: 91.5% | Activity [5]: 3.51% | Activity [6]: 8.29% | IC50 [7]: 3300 nM | Activity [8]: 0.41% | Activity [9]: 4.5% | IC50 [10]: 2.4 nM | IC50 [11]: 3100 nM | viability at 0.25 µM [12]: 93.9% | IC50 [13]: 4200 nM | IC50 [14]: 1100 nM | Activity [15]: 0.4% | Activity [16]: inactive | viability at 0.5 µM [17]: 94.8% | IC50 at 48 h [18]: > 100000 nM

Structure (SMILES): COc1nc(-c2ccc(NC(=O)Nc3ccc(C(=O)Nc4ccccc4N)cc3)cc2)nc(N2CCOCC2)n1
IC50 [19]: > 10000 nM | IC50 [20]: 334 nM | IC50 [10]: 11.2 nM | IC50 [21]: > 10000 nM

Structure (SMILES): COc1nc(-c2ccc(NC(=O)Nc3ccc(C(=O)Nc4ccc(F)c(F)c4N)cc3)cc2)nc(N2CCOCC2)n1
IC50 [19]: > 10000 nM | IC50 [10]: 20.5 nM | IC50 [21]: > 10000 nM

Structure (SMILES): Nc1ccccc1NC(=O)CCCNC(=O)c1ccc(NC(=O)Nc2ccc(-c3nc(N4CCOCC4)nc(N4CCOCC4)n3)cc2)cc1
IC50 [19]: > 10000 nM | IC50 [20]: > 10000 nM | IC50 [10]: 11.6 nM | IC50 [21]: > 10000 nM

Structure (SMILES): Nc1ccccc1NC(=O)CCCCCNC(=O)c1ccc(NC(=O)Nc2ccc(-c3nc(OC4CCOC4)nc(N4CCOCC4)n3)cc2)cc1 (stereo not drawn)
IC50 [19]: 211 nM | IC50 [20]: 54 nM | IC50 [10]: 7.9 nM | IC50 [21]: 247 nM

Second part, led by results:

IC50 [19]: > 10000 nM | IC50 [20]: > 10000 nM | IC50 [10]: 51.7 nM | IC50 [21]: > 10000 nM
Structure (SMILES): Nc1ccccc1NC(=O)CCNC(=O)c1ccc(NC(=O)Nc2ccc(-c3nc(N4CCOCC4)nc(N4CCOCC4)n3)cc2)cc1

IC50 [7]: 4700 nM | IC50 [10]: > 10000 nM | IC50 [11]: 2800 nM | IC50 [13]: 10900 nM
Structure (SMILES): CC(=O)Nc1ccc(C(=O)Nc2ccccc2N)cc1 [TACEDINALINE]
Activity [2]: 0.37% | CI [22]: 0.575 | Activity [23]: 1.48% | CI [24]: 0.61 | Activity [25]: 2.3% | viability at 1 µM [4]: 92.4% | Activity [5]: 5.62% | Activity [6]: 4.73% | CI [26]: 0.443 | CI [27]: 0.119 | Activity [28]: 1.46% | CI [29]: 0.191 | CI [30]: 0.592 | Activity [8]: 0.51% | Activity [9]: 5.6% | CI [31]: 0.43 | CI [32]: 0.39 | CI [33]: 0.191 | CI [34]: 0.431 | CI [35]: 0.221 | CI [36]: 0.342 | CI [37]: 0.629 | viability at 0.25 µM [12]: 92.6% | CI [38]: 0.274 | CI [39]: 0.711 | CI [40]: 0.475 | IC50 [14]: 1900 nM | Activity [15]: 0.59% | viability at 0.5 µM [17]: 92.4% | IC50 at 48 h [18]: > 100000 nM

IC50 [19]: 178 nM | IC50 [20]: 56.1 nM | IC50 [10]: 9 nM | IC50 [21]: 168 nM
Structure (SMILES): Nc1ccccc1NC(=O)CCCCCCNC(=O)c1ccc(NC(=O)Nc2ccc(-c3nc(OC4COC4)nc(N4CCOCC4)n3)cc2)cc1

IC50 [19]: 227 nM | IC50 [20]: 99.2 nM | IC50 [10]: 17.3 nM | IC50 [21]: 602 nM
Structure (SMILES): Nc1ccccc1NC(=O)CCCCCNC(=O)c1ccc(NC(=O)Nc2ccc(-c3nc(N4CCOCC4)nc(N4CCOCC4)n3)cc2)cc1

IC50 [19]: 81.5 nM | IC50 [20]: 17.7 nM | IC50 [10]: 4.5 nM | IC50 [21]: 128 nM
Structure (SMILES): Nc1ccccc1NC(=O)CCCCCNC(=O)c1ccc(NC(=O)Nc2ccc(-c3nc(OC4COC4)nc(N4CCOCC4)n3)cc2)cc1
